Literature values as cited in PubChem BioAssay AID1259409 (Chemical Carcinogenesis Research Information System (CCRIS), 2018).

Test system: rodent chemically induced tumor inhibition, incidence and multiplicity
Assay: CCRIS tumor inhibitor studies
Settings: Carcinogen: PHENACETIN, 62-44-2, N-BUTYL-N-(4-HYDROXYBUTYL)NITROSAMINE, 3817-11-6, Carcinogen: PHENACETIN, 62-44-2, N-BUTYL-N-(4-HYDROXYBUTYL)NITROSAMINE, 3817-11-6, Dose [Inhibitor]: 0, Route [Inhibitor]: SUBCUTANEOUS, Species: MOUSE, Strain/Sex: NON/SHI/MALE, Promoter: NONE USED

In the case of CC[C@H](C)[C@@H](NC(=O)[C@@H](CCC(=O)O)NC(=O)[C@@H](CO)NC(=O)[C@@H](CO)NC(=O)[C@H](NC(=O)[C@@H](CC(=O)O)NC(=O)[C@H](NC(=O)[C@H](C)NC(=O)[C@H](C)NC(=O)[C@@H](CC(=O)O)NC(=O)[C@@H](CO)NC(=O)[C@H](N)CS)C(C)C)C(C)C)C(=O)N[C@@H](C(=O)N[C@@H](C(=O)N[C@H](CCCCN)C(=O)N[C@H](CC(=O)O)C(=O)N[C@H](CC(C)C)C(=O)N[C@H](CCCCN)C(=O)N[C@H](CCC(=O)O)C(=O)N[C@H](CCCCN)C(=O)N[C@H](CCCCN)C(=O)N[C@H](CCC(=O)O)C(=O)N[C@@H](C(=O)N[C@@H](C(=O)N[C@H](CCC(=O)O)C(=O)N[C@H](CCC(=O)O)C(=O)N[C@@H](C)C(=O)N[C@H](CCC(=O)O)C(=O)O)C(C)C)C(C)C)C(C)C)[C@H](C)O, the “tumour outcome (control, treated, inhibition, significance)” value (60 UG IN 0.1 ML SALINE 2/WK FOR 6 WK CONCURRENTLY WITH BBN TREATMENT (STUDY DURATION: 34 WK), Target Tissue: Type of Lesion: URINARY BLADDER: CARCINOMA, Dose [Carcinogen]: 2% PHENACETIN IN DIET FOR 12 WK FOLLOWED BY 0.05% BBN IN DRINKING WATER FOR 6 WK) is listed as 7/20 (35%), 5/19 (26%), 26%, not significant, the “tumour outcome (control, treated, inhibition, significance)” value (60 UG IN 0.1 ML SALINE 2/WK FOR 16 WK BEGINNING POST CARCINOGEN TREATMENT (STUDY DURATION: 30 WK), Target Tissue: Type of Lesion: RENAL PELVIS: CARCINOMA, Dose [Carcinogen]: 2% PHENACETIN IN DIET FOR 8 WK FOLLOWED BY 0.05% BBN IN DRINKING WATER FOR 6 WK) is listed as 2/11 (18%), 8/12 (67%), -272%, not significant and the “tumour outcome (control, treated, inhibition, significance)” value (60 UG IN 0.1 ML SALINE 2/WK FOR 16 WK BEGINNING POST CARCINOGEN TREATMENT (STUDY DURATION: 30 WK), Target Tissue: Type of Lesion: URINARY BLADDER: CARCINOMA, Dose [Carcinogen]: 2% PHENACETIN IN DIET FOR 8 WK FOLLOWED BY 0.05% BBN IN DRINKING WATER FOR 6 WK) is listed as 2/11 (18%), 3/12 (25%), -39%, not significant. The “tumour outcome (control, treated, inhibition, significance)” value (60 UG IN 0.1 ML SALINE 2/WK FOR 16 WK BEGINNING POST CARCINOGEN TREATMENT (STUDY DURATION: 34 WK), Target Tissue: Type of Lesion: RENAL PELVIS: CARCINOMA, Dose [Carcinogen]: 2% PHENACETIN IN DIET FOR 12 WK FOLLOWED BY 0.05% BBN IN DRINKING WATER FOR 6 WK) was 9/20 (45%), 10/18 (56%), -24%, not significant, the “tumour outcome (control, treated, inhibition, significance)” value (60 UG IN 0.1 ML SALINE 2/WK FOR 16 WK BEGINNING POST CARCINOGEN TREATMENT (STUDY DURATION: 34 WK), Target Tissue: Type of Lesion: URINARY BLADDER: CARCINOMA, Dose [Carcinogen]: 2% PHENACETIN IN DIET FOR 12 WK FOLLOWED BY 0.05% BBN IN DRINKING WATER FOR 6 WK) was 7/20 (35%), 4/18 (22%), 37%, not significant and the “tumour outcome (control, treated, inhibition, significance)” value (60 UG IN 0.1 ML SALINE 2/WK FOR 22 WK BEGINNING POST PHENACETIN TREATMENT (STUDY DURATION: 30 WK), Target Tissue: Type of Lesion: RENAL PELVIS: CARCINOMA, Dose [Carcinogen]: 2% PHENACETIN IN DIET FOR 8 WK FOLLOWED BY 0.05% BBN IN DRINKING WATER FOR 6 WK) was 2/11 (18%), 2/12 (17%), 5%, not significant. For the same molecule, the “tumour outcome (control, treated, inhibition, significance)” value (60 UG IN 0.1 ML SALINE 2/WK FOR 22 WK BEGINNING POST PHENACETIN TREATMENT (STUDY DURATION: 30 WK), Target Tissue: Type of Lesion: URINARY BLADDER: CARCINOMA, Dose [Carcinogen]: 2% PHENACETIN IN DIET FOR 8 WK FOLLOWED BY 0.05% BBN IN DRINKING WATER FOR 6 WK) was 2/11 (18%), 1/12 (8%), 56%, not significant, the “tumour outcome (control, treated, inhibition, significance)” value (60 UG IN 0.1 ML SALINE 2/WK FOR 22 WK BEGINNING POST PHENACETIN TREATMENT (STUDY DURATION: 34 WK), Target Tissue: Type of Lesion: RENAL PELVIS: CARCINOMA, Dose [Carcinogen]: 2% PHENACETIN IN DIET FOR 12 WK FOLLOWED BY 0.05% BBN IN DRINKING WATER FOR 6 WK) was 9/20 (45%), 13/19 (68%), -51%, not significant and the “tumour outcome (control, treated, inhibition, significance)” value (60 UG IN 0.1 ML SALINE 2/WK FOR 22 WK BEGINNING POST PHENACETIN TREATMENT (STUDY DURATION:34 WK), Target Tissue: Type of Lesion: URINARY BLADDER: CARCINOMA, Dose [Carcinogen]: 2% PHENACETIN IN DIET FOR 12 WK FOLLOWED BY 0.05% BBN IN DRINKING WATER FOR 6 WK) was 7/20 (35%), 7/19 (37%), -6%, not significant.
